Molecules are shown by their SMILES. Where only a bound is given, the exact number is not on record here.

Data set [1] is described as follows: Non-specific adsorption of diclofenac on the OFM probes and tubing. The settings on record: for the duration of the experiment (6 h); data not shown. How it is done:
Two test solutions of diclofenac diethyl amine salt (DDEA) and diclofenac sodium salt (DNa) were tested. […] Samples were collected in 1 h intervals. Syringes and Eppendorf® vials were used to deliver test solution to the OFM outlet sections and tubing, respectively. Samples from the syringes and from the Eppendorf® vials were taken at the start (t=0 h) and at the end (t=6 h) of the experiment to determine the concentration entering the OFM probe and tubing. Syringes, dosing needles, Eppendorf® vials, and pipette tips were coated with each test solution prior to use. For coating, the samples were filled with test solutions and maintained at room temperature for 30 min. Afterwards, the coating test solutions were discarded. Pipette tips underwent three cycles of filling and emptying of test solutions. The fourth filling of the pipette tip was used as the sample. Adsorption was assessed by comparing inflow to outflow concentrations. […] LLOQ was 10 ng mL^-1.

The conditions of data set [2]: both, human.
Description: The skin was donated by male and female patients aged 28 to 63 years old undergoing abdominal plastic surgery at the Department for Plastic, Aesthetic, and Reconstructive Surgery of the Medical University Graz. […] The human skin explants were cleaned with gauze swabs and purified water and were subsequently stored frozen at −20° C.
The skin explants were thawed at room temperature for 12 h before the start of the study. They were fixed on a plate of extruded polystyrene wrapped in a medical underpad (MoliNea N, Paul Hartmann AG, Austria) and placed into a climate chamber (32° C./40-60% relative humidity) for 1 h before use. Ambient temperature and ambient relative humidity within the climate chamber were controlled throughout the experiment with a data logger with integrated temperature sensor and relative humidity sensor (175 H1 temperature and humidity data logger, Testo, Germany).
Cannulas (Sterican 20G, B.Braun, Germany) were inserted into the dermis and the subcutis of the skin explant. OFM probes (OFM-P0X-15, JR-HEALTH, Austria) were pushed through the cannulas. Afterwards, the cannulas were removed and the probes were fixed to the skin with cyanoacrylate (Cyanolit 241F, Panacol-Elosol GmbH, Germany). […]
For the next data set, the system named is protein. The settings on record: cited from earlier work.

Regarding `O=C(O)Cc1ccccc1Nc1c(Cl)cccc1Cl` [DDEA, diclofenac diethylammonium], in data set [1], the “stability in the stock solution” value is “stable”. As to `O=C(O)Cc1ccccc1Nc1c(Cl)cccc1Cl` [DNa, diclofenac sodium], the “concentration in recirculation probes higher than in control probes by” value in data set [2] (28 h) came to 9 ng/mL. On to `O=C(O)Cc1ccccc1Nc1c(Cl)cccc1Cl` [Diclofenac, diclofenac], for which the protein binding with protein is greater than 99.8%. For the same compound, in data set [2], the dilution factor is reported as 13.9 fold.

These data come from patent publication US20250198992A1, “IN VITRO METHODS” (HALEON CH SARL, priority 2022, published 2025).
